Laboratory results taken from publication PMC12223813, “Antiproliferative and Trypanocidal Activity of Ivermectin Bioconjugates” (ACS Omega, 2025).
Where two headings read alike, the source gives them in different places.

Key:
[1] = tested on: bloodstream forms of T. b. brucei (427-221a clone); experiment: microbe, parasite or virus in culture; conditions: for GI50: Trypanosoma brucei, 72 h, read-out: T. brucei GI50, bloodstream forms, 72 h total (24 h + 48 h with resazurin), mean ± SD of three independent experiments
Protocol: (§1) The trypanocidal and cytotoxic activities of the newly synthesized IVR bioconjugates and their conjugation partners were determined for bloodstream forms of T. brucei brucei and human myeloid HL-60 cells in vitro using the resazurin cell viability assay as previously described.
(§2) Test compounds were assayed at 10-fold dilutions ranging from 100 μM to 1 nM in the presence of 0.9% DMSO. Controls were grown in the culture medium containing only 0.9% DMSO. The assays were cultured in an incubator at 37 °C in a humidified atmosphere containing 5% CO2. After 24 h incubation, 20 μL of 0.5 mM resazurin (prepared in sterile PBS) was added, and the cultures were grown for another 48 h. Then, the proliferation of the cells was determined by measuring the absorbance at 570 nm (test wavelength) and 630 nm (reference wavelength) using a microplate reader.

[2] = tested on: human promyelocytic leukemia HL-60 cells; experiment: Cytotoxic activity, resazurin cell viability assay; type: cell-based; conditions: 72 h total (24 h + 48 h with resazurin), mean ± SD of three independent experiments
Protocol: as §1, §2

[3] = tested on: A549, human lung cancer cell line; experiment: Antiproliferative activity, MTT assay; type: cell-based; conditions: for IC50: Homo sapiens, A549, 72 h, MTT, mean ± SD; for A549 SI: SI = IC50 HaCaT/IC50 A549
Protocol: (§3) Additionally, to assess the selectivity of these compounds toward cancer cells, we included an immortalized keratinocyte cell line from adult human skin (HaCaT) in the antiproliferative activity tests. Doxorubicin served as the reference anticancer drug.
(§4) The culture media were enriched with 10% fetal bovine serum (FBS, Sigma-Aldrich, St. Louis, MO, USA), 20 mM HEPES (Biowest, Nuaillé, France), and antibiotics (100 U/mL penicillin and 100 μg/mL streptomycin) obtained from Gibco (Grand Island, NY, USA). The cells were maintained in a humidified incubator at 37 °C with 5% CO2 until they reached 80–90% confluence, after which they were used for further experiments.
(§5) To assess the cytotoxicity, the cells (0.5 × 10^4/well) were plated in 96-well plates and allowed to adhere for 24 h. The MTT (3-(4,5-dimethylthiazol-2-yl)-2,5-diphenyltetrazolium bromide) assay was used to evaluate the cytotoxic effects of IVR bioconjugates on all tested cell lines. After 24 h incubation, cells were exposed to varying concentrations (1 to 100 μM) of the test compounds for 72 h. Following the treatment, the medium was discarded, and a 0.5 mg mL^–1 MTT solution was added to each well and incubation was continued for another 4 h. Mitochondrial enzyme activity facilitated the formation of formazan crystals, which were subsequently dissolved in DMSO-isopropanol (1:1, v/v), producing a violet-colored solution. A 100 μL aliquot of this solution was transferred to the well, and absorbance was recorded at 570 nm using a MultiscanGo spectrophotometer (ThermoFisher Scientific, Carlsbad, CA, USA).
(§6) Cytotoxicity was quantified by comparing the absorbance of the treated cells to that of untreated controls using the formula: [A]/[B] × 100, where [A] represents the absorbance of the treated sample and [B] corresponds to the absorbance of the control sample. A decrease in MTT levels reflects a decrease in cell viability.

[4] = tested on: HCT-116, human primary colon cancer cell line; experiment: Antiproliferative activity, MTT assay; type: cell-based; conditions: for IC50: Homo sapiens, HCT-116, 72 h, MTT, mean ± SD; for HCT-116 SI: SI = IC50 HaCaT/IC50 HCT-116
Protocol: as §3, §4, §5, §6

[5] = tested on: MDA-MB-231, human triple-negative breast cancer cell line; experiment: Antiproliferative activity, MTT assay; type: cell-based; conditions: for IC50: Homo sapiens, MDA-MB-231, 72 h, MTT, mean ± SD; for MDA-MB-231 SI: SI = IC50 HaCaT/IC50 MDA-MB-231
Protocol: as §3, §4, §5, §6

[6] = tested on: PC3, human metastatic prostate cancer cell line; experiment: Antiproliferative activity, MTT assay; type: cell-based; conditions: for IC50: Homo sapiens, 72 h, MTT, mean ± SD; for PC3 SI: SI = IC50 HaCaT/IC50 PC3
Protocol: as §3, §4, §5, §6

[7] = tested on: HaCaT, human immortalized keratinocyte cell line; experiment: Cytotoxicity toward normal cells, MTT assay; type: cell-based; conditions: 72 h, mean ± SD
Protocol: as §3, §4, §5, §6

| SMILES | selectivity GI50 ratio ([1]; GI50(HL-60)/GI50(T. brucei)) | GI50 [1] | GI50 [2] | IC50 [3] | A549 SI [3] | IC50 [4] | HCT-116 SI [4] | IC50 [5] | MDA-MB-231 SI [5] | IC50 [6] | PC3 SI [6] | IC50 [7] | selectivity GI50 ratio [1] |
| --- | --- | --- | --- | --- | --- | --- | --- | --- | --- | --- | --- | --- | --- |
| C[C@H]1[C@H](OC(=O)CCC(=O)O)O[C@@H]2O[C@@]3(C)CC[C@H]4[C@H](C)CC[C@@H]1[C@@]24OO3 [artesunate, reference compound] | 8.6 | 3.6 ± 0.2 µM | 30.8 ± 9 µM | 24 ± 6.9 µM | 0.2 | 37.8 ± 4.2 µM | 0.2 | 12.6 ± 3.9 µM | 0.5 | 48.5 ± 5.7 µM | 0.1 | 5.7 ± 0.1 µM |  |
| Cc1cn([C@H]2C[C@H](N=[N+]=[N-])[C@@H](CO)O2)c(=O)[nH]c1=O [azidothymidine, reference compound] | >5.2 | > 10 µM | > 100 µM | 72.1 ± 11.6 µM | >1.4 | 60.2 ± 9.7 µM | >1.7 | 52.2 ± 4.1 µM | >1.9 | 64.3 ± 3.7 µM | >1.6 | > 100 µM |  |
| C=C(C)[C@@H]1CC[C@]2(C(=O)O)CC[C@]3(C)[C@H](CC[C@@H]4[C@@]5(C)CC[C@H](O)C(C)(C)[C@@H]5CC[C@]43C)[C@@H]12 [betulinic acid, reference compound] | 2.8 | 15.4 ± 4.4 µM | 42.5 ± 2.5 µM | 98.1 ± 3.1 µM | >1.0 | 80.1 ± 6.1 µM | >1.2 | 46.5 ± 4.6 µM | >2.2 | 66.6 ± 2.3 µM | >1.5 | > 100 µM |  |
| C=C[C@H]1CN2CC[C@H]1C[C@H]2[C@H](O)c1ccnc2ccccc12 [cinchonidine, reference compound] | >47.6 | 2.1 ± 0.6 µM | > 100 µM | > 100 µM | ∼1.0 | 87.1 ± 12.1 µM | >1.1 | > 100 µM | ∼1.0 | 86.7 ± 3.9 µM | >1.2 | > 100 µM |  |
| C=C[C@H]1C[N@@]2CC[C@H]1C[C@@H]2[C@@H](O)c1ccnc2ccccc12 [cinchonine, reference compound] | >58.8 | 1.7 ± 0.6 µM | > 100 µM | > 100 µM | ∼1.0 | 78.2 ± 5.8 µM | >1.3 | 65.3 ± 2.8 µM | >1.5 | 74.3 ± 5.4 µM | >1.3 | > 100 µM |  |
| CC[C@H](C)[C@H]1O[C@]2(CC[C@@H]1C)C[C@@H]1C[C@@H](C/C=C(\C)[C@@H](O[C@H]3C[C@H](OC)[C@@H](O[C@H]4C[C@H](OC)[C@@H](O)[C@H](C)O4)[C@H](C)O3)[C@@H](C)/C=C/C=C3\CO[C@@H]4[C@H](O)C(C)=C[C@@H](C(=O)O1)[C@]34O)O2 [compound 1, Ivermectin] |  |  | 30 ± 1.1 µM | 7.2 ± 1.4 µM | 1.8 | 9.9 ± 1.1 µM | 1.3 | 8.7 ± 3.2 µM | 1.4 | 33.9 ± 6.3 µM | 0.4 | 12.6 ± 4.3 µM | 10.3 |
| C=C[C@H]1CN2CC[C@H]1C[C@@H]2[C@@H](OC(=O)O[C@@H]1/C(C)=C/C[C@@H]2C[C@@H](C[C@]3(CC[C@H](C)[C@@H]([C@@H](C)CC)O3)O2)OC(=O)[C@@H]2C=C(C)[C@@H](O)[C@H]3OC/C(=C\C=C\[C@@H]1C)[C@]32O)c1ccnc2ccc(OC)cc12 [compound 5, Ivermectin–Quinidine Conjugate] | 17.6 | 1.3 ± 0.4 µM | 22.9 ± 11.2 µM | 42.3 ± 0.5 µM | 0.4 | 13.8 ± 3.5 µM | 1.1 | 10.1 ± 1.4 µM | 1.5 | 12.4 ± 2.1 µM | 1.2 | 14.9 ± 1.6 µM |  |
| C=C[C@H]1CN2CC[C@H]1C[C@H]2[C@H](OC(=O)O[C@@H]1/C(C)=C/C[C@@H]2C[C@@H](C[C@]3(CC[C@H](C)[C@@H]([C@@H](C)CC)O3)O2)OC(=O)[C@@H]2C=C(C)[C@@H](O)[C@H]3OC/C(=C\C=C\[C@@H]1C)[C@]32O)c1ccnc2ccccc12 [compound 7, Ivermectin–Cinchonidine Conjugate] | 20.5 | 2.3 ± 0.3 µM | 47.2 ± 3.7 µM | 13.6 ± 1.1 µM | 3.7 | 20.1 ± 3.7 µM | 2.5 | 22.4 ± 1.2 µM | 2.2 | 7.2 ± 3.8 µM | 7.0 | 50.3 ± 4.9 µM |  |
| CC[C@H](C)[C@H]1O[C@]2(CC[C@@H]1C)C[C@@H]1C[C@@H](C/C=C(\C)[C@@H](OC(=O)N[C@H]3CCc4cc(OC)c(OC)c(OC)c4-c4ccc(SC)c(=O)cc43)[C@@H](C)/C=C/C=C3\CO[C@@H]4[C@H](O)C(C)=C[C@@H](C(=O)O1)[C@]34O)O2 [compound 8] | 7.2 | 1.4 ± 0.5 µM | 10.1 ± 4.9 µM | 12.4 ± 2.6 µM | >8.1 | 7.5 ± 1.6 µM | >13.3 | 6.6 ± 0.6 µM | >15.2 | 85.1 ± 9.8 µM | >1.2 | > 100 µM |  |
| CCC(C)C1OC2(CCC1C)CC1CC(CC=C(C)C(OC(=O)OCC3OC(n4cc(C)c(=O)[nH]c4=O)CC3N=[N+]=[N-])C(C)C=CC=C3COC4C(O)C(C)=CC(C(=O)O1)C34O)O2 (stereo not shown) [compound 11, Ivermectin–Azidothymidine Conjugate] | 5.6 |  | 11.1 ± 4.1 µM | 8.2 ± 1.9 µM | 3.2 | 7.7 ± 3.1 µM | 3.4 | 12.5 ± 1.5 µM | 2.1 | 8.1 ± 3.2 µM | 3.2 | 26.1 ± 3.3 µM |  |
| C=C(C)C1CCC2(C(=O)OCc3cn(CC(=O)OC4C(C)=CCC5CC(CC6(CCC(C)C(C(C)CC)O6)O5)OC(=O)C5C=C(C)C(O)C6OCC(=CC=CC4C)C56O)nn3)CCC3(C)C(CCC4C5(C)CCC(O)C(C)(C)C5CCC43C)C12 (stereo not shown) [compound 15, Ivermectin–Betulinic Acid Conjugate] | >4.6 | 21.9 ± 2.1 µM | > 100 µM | > 100 µM | ∼1.0 | 70.1 ± 6.4 µM | >1.4 | > 100 µM | ∼1.0 | 93.9 ± 6.4 µM | >1.1 | > 100 µM |  |
| COc1cccc2c1C(=O)c1c(O)c3c(c(O)c1C2=O)C[C@@](O)(C(=O)CO)C[C@@H]3O[C@H]1C[C@H](N)[C@H](O)[C@H](C)O1 [doxorubicin, reference compound] |  |  |  | 0.63 ± 0.2 µM |  | 0.6 ± 0.02 µM |  | 1.83 ± 0.1 µM |  | 0.6 ± 0.02 µM |  | 0.29 ± 0.1 µM |  |
| CC[n+]1c(-c2ccccc2)c2cc(N)ccc2c2ccc(N)cc21 [ethidium bromide, reference compound] | 202 |  | 9.3 ± 2.6 µM |  |  |  |  |  |  |  |  |  |  |
| O=c1[nH]c(=O)n([C@H]2C[C@H](O)[C@@H](CO)O2)cc1F [floxuridine, reference compound] | >45.5 | 2.2 ± 0.4 µM | > 100 µM | 26.4 ± 3.8 µM | 0.9 | 11.7 ± 4.2 µM | 2.1 | 22.2 ± 3.4 µM | 1.1 | 15.7 ± 3.3 µM | 1.5 | 24.3 ± 7.3 µM |  |
| Cc1ccc(C(=O)Nc2ccc(S(=O)(=O)O)c3cc(S(=O)(=O)O)cc(S(=O)(=O)O)c23)cc1NC(=O)c1cccc(NC(=O)Nc2cccc(C(=O)Nc3cc(C(=O)Nc4ccc(S(=O)(=O)O)c5cc(S(=O)(=O)O)cc(S(=O)(=O)O)c45)ccc3C)c2)c1 [suramin, reference compound] |  | 0.039 ± 0.004 µM | > 100 µM |  |  |  |  |  |  |  |  |  |  |
